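Five concentrations, 48 hours, 96-well plates. GI50: concentration for 50% inhibition of growth. TGI denotes the concentration required for complete inhibition of growth.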
Columns and labels:
Test in all cases: NCI tumour cell line growth inhibition, 48 h
A549 NSCLC = tested on: A549 NSCLC
HL-60(TB) leukemia = tested on: HL-60(TB) leukemia
MCF7 breast = tested on: MCF7 breast
NCI-H460 lung = tested on: NCI-H460 lung
NCI-H522 lung = tested on: NCI-H522 lung
SF-539 CNS = tested on: SF-539 CNS
SNB-75 CNS = tested on: SNB-75 CNS
SR leukemia = tested on: SR leukemia
DLD-1 colon = tested on: DLD-1 colon
KM20L2 colon = tested on: KM20L2 colon
SNB-78 CNS = tested on: SNB-78 CNS

## CC(C)C[CH2][Ge]([CH2]CC(C)C)([CH2]CC(C)C)[CH2]CC(C)C
A549 NSCLC
  GI50: > 100 µM
  TGI: > 100 µM
HL-60(TB) leukemia
  GI50: > 100 µM
  TGI: > 100 µM
MCF7 breast
  GI50: > 100 µM
  TGI: > 100 µM
NCI-H460 lung
  GI50: > 100 µM
  TGI: > 100 µM
NCI-H522 lung
  GI50: > 100 µM
  TGI: > 100 µM
SF-539 CNS
  GI50: > 100 µM
  TGI: > 100 µM
SNB-75 CNS
  GI50: > 100 µM
  TGI: > 100 µM
SR leukemia
  GI50: > 100 µM
  TGI: > 100 µM

## O=c1c2c(=NCCN3CCCC3)cc3c(=O)n(CCCN4CCOCC4)c(=O)c4ccc(c(O)n1CCCN1CCOCC1)c2c4-3
A549 NSCLC
  GI50: 0.0441 µM
  TGI: 3.44 µM
HL-60(TB) leukemia
  GI50: 0.338 µM
  TGI: 1.43 µM
MCF7 breast
  GI50: 0.0752 µM
  TGI: 1.13 µM
NCI-H460 lung
  GI50: 0.0791 µM
  TGI: 1.08 µM
NCI-H522 lung
  GI50: 0.102 µM
  TGI: 0.438 µM
SF-539 CNS
  GI50: 0.345 µM
  TGI: 1.43 µM
SNB-75 CNS
  GI50: 0.234 µM
  TGI: 1.46 µM
SR leukemia
  GI50: < 0.0201 µM
  TGI: 5.37 µM

## O=C1/C(=C/c2ccc(Cl)cc2)CN(C(=O)CCN2CCC(=NO)CC2)C/C1=C\c1ccc(Cl)cc1
A549 NSCLC
  GI50: 1.65 µM
  TGI: 3.77 µM
HL-60(TB) leukemia
  GI50: 1.37 µM
  TGI: 4.9 µM
MCF7 breast
  GI50: 0.284 µM
  TGI: 1.59 µM
NCI-H460 lung
  GI50: 0.888 µM
  TGI: 2.73 µM
NCI-H522 lung
  GI50: 0.731 µM
  TGI: 2.29 µM
SF-539 CNS
  GI50: 1.21 µM
  TGI: 2.55 µM
SNB-75 CNS
  GI50: 1.31 µM
  TGI: 2.61 µM
SR leukemia
  GI50: 0.114 µM

## COc1cc(OC)c(F)c(COc2cnc(Nc3cnn(CCO)c3)nc2)c1F
A549 NSCLC
  GI50: 1.37 µM
  TGI: > 100 µM
HL-60(TB) leukemia
  GI50: 0.245 µM
  TGI: 0.702 µM
MCF7 breast
  GI50: 0.417 µM
  TGI: > 100 µM
NCI-H460 lung
  GI50: 0.444 µM
  TGI: > 100 µM
NCI-H522 lung
  GI50: 0.341 µM
  TGI: 1.65 µM
SF-539 CNS
  GI50: 0.275 µM
  TGI: 2.17 µM
SNB-75 CNS
  GI50: 0.203 µM
  TGI: 2.32 µM
SR leukemia
  GI50: 0.274 µM

## COc1ccc2c(c1)[nH]c(=O)c1c3cc(OC)c(OC)cc3cn21
A549 NSCLC
  GI50: < 0.01 µM
  TGI: 1.41 µM
HL-60(TB) leukemia
  GI50: < 0.01 µM
  TGI: < 0.0104 µM
MCF7 breast
  GI50: 0.0323 µM
  TGI: 1.28 µM
NCI-H460 lung
  GI50: < 0.01 µM
  TGI: 1.04 µM
NCI-H522 lung
  GI50: < 0.01 µM
  TGI: 0.0125 µM
SF-539 CNS
  GI50: 0.0175 µM
  TGI: 0.0618 µM
SNB-75 CNS
  GI50: < 0.01 µM
  TGI: 19.7 µM
SR leukemia
  GI50: < 0.01 µM
  TGI: 0.0961 µM

## O=C(Nc1ccc(Oc2ccc(NC(=O)Nc3ccc([N+](=O)[O-])cc3)cc2)cc1)Nc1ccc([N+](=O)[O-])cc1
A549 NSCLC
  GI50: 2.61 µM
  TGI: > 78.8 µM
HL-60(TB) leukemia
  GI50: 0.787 µM
  TGI: 3.41 µM
MCF7 breast
  GI50: 1.68 µM
  TGI: 6.22 µM
NCI-H460 lung
  GI50: 1.74 µM
  TGI: 6.61 µM
NCI-H522 lung
  GI50: 1.03 µM
  TGI: 4.32 µM
SF-539 CNS
  GI50: 3.07 µM
  TGI: 20.6 µM
SNB-75 CNS
  GI50: 2.78 µM
  TGI: > 100 µM
SR leukemia
  GI50: 1.35 µM
  TGI: 4.87 µM

## N#Cc1cc([N+](=O)[O-])ccc1NC(=O)C(=O)C(C(=O)c1ccc2ccccc2c1)C1OCc2ccccc21 (stereo not drawn)
A549 NSCLC
  TGI: > 89 µM
DLD-1 colon
  TGI: 54.2 µM
HL-60(TB) leukemia
  TGI: 46.7 µM
KM20L2 colon
  TGI: 42.6 µM
NCI-H460 lung
  TGI: 20.5 µM
NCI-H522 lung
  TGI: 13.8 µM
SF-539 CNS
  TGI: 5.83 µM
SNB-75 CNS
  TGI: 16.1 µM
SNB-78 CNS
  TGI: 35.2 µM
SR leukemia
  TGI: 16.9 µM

## CCOC(=O)c1ccccc1SC(C[N+](=O)[O-])c1ccccc1 (stereo not drawn)
A549 NSCLC
  GI50: 5.18 µM
  TGI: 21.6 µM
HL-60(TB) leukemia
  GI50: 5.96 µM
  TGI: 27.9 µM
MCF7 breast
  GI50: 1.07 µM
  TGI: 4.12 µM
NCI-H460 lung
  GI50: 18.6 µM
  TGI: 39.5 µM
NCI-H522 lung
  GI50: 11 µM
  TGI: 23.3 µM
SF-539 CNS
  GI50: 3.23 µM
  TGI: 12 µM
SNB-75 CNS
  GI50: 12.7 µM
  TGI: 41.6 µM
SR leukemia
  GI50: 2.99 µM
  TGI: 8.97 µM

## COc1ccc(-c2nc(-c3ccccn3)c(-c3ccccn3)n2CC(C)C)cc1OC1CCCC1
A549 NSCLC
  GI50: 9.02 µM
  TGI: 65.1 µM
HL-60(TB) leukemia
  GI50: 21.2 µM
  TGI: 58.8 µM
MCF7 breast
  GI50: 6.58 µM
  TGI: 115 µM
NCI-H460 lung
  GI50: 32.1 µM
  TGI: 99.7 µM
NCI-H522 lung
  GI50: 31.4 µM
  TGI: 81.3 µM
SF-539 CNS
  GI50: 33.8 µM
  TGI: 99.7 µM
SNB-75 CNS
  GI50: 24 µM
  TGI: 123 µM
SR leukemia
  GI50: 7.77 µM
  TGI: 49.2 µM

## CN(C)CC1CCCCCC(Br)C1=O (stereo not drawn)
A549 NSCLC
  TGI: > 100 µM
HL-60(TB) leukemia
  TGI: 30.1 µM
MCF7 breast
  TGI: 12.7 µM
NCI-H460 lung
  TGI: 49.6 µM
NCI-H522 lung
  TGI: 8.72 µM
SF-539 CNS
  TGI: 31.8 µM
SNB-75 CNS
  TGI: > 100 µM
SR leukemia
  TGI: 7.14 µM

## COc1cc2cnc(-c3ccccc3)cc2cc1OC
A549 NSCLC
  TGI: 85.3 µM
HL-60(TB) leukemia
  TGI: 59.7 µM
MCF7 breast
  TGI: > 100 µM
NCI-H460 lung
  TGI: > 100 µM
NCI-H522 lung
  TGI: 53 µM
SF-539 CNS
  TGI: > 100 µM
SNB-75 CNS
  TGI: > 100 µM
SR leukemia
  TGI: 45.8 µM

## CC[C@H](C)[C@H](NC(=O)NC(C)(C)C)C(=O)N(C)[C@H](C[C@@H](OC(C)=O)c1nc(C(=O)N[C@@H](Cc2ccccc2)C[C@H](C)C(=O)OC)cs1)C(C)C
A549 NSCLC
  GI50: 1.15 µM
  TGI: > 25 µM
HL-60(TB) leukemia
  GI50: 0.374 µM
  TGI: 1.56 µM
MCF7 breast
  GI50: 0.123 µM
  TGI: > 25 µM
NCI-H460 lung
  GI50: 0.699 µM
  TGI: > 13.7 µM
NCI-H522 lung
  GI50: 0.107 µM
  TGI: 0.765 µM
SF-539 CNS
  GI50: 0.628 µM
  TGI: 1.82 µM
SNB-75 CNS
  GI50: 0.293 µM
  TGI: > 25 µM
SR leukemia
  GI50: 0.141 µM
  TGI: > 11.4 µM

## Nc1nccc2c1ccn2-c1cccc(NC(=O)c2ccc(N3CCOCC3)c(C(F)(F)F)c2)c1
A549 NSCLC
  GI50: 0.922 µM
  TGI: > 50 µM
HL-60(TB) leukemia
  GI50: 1.09 µM
  TGI: 7.83 µM
MCF7 breast
  GI50: 0.181 µM
  TGI: > 18.5 µM
NCI-H460 lung
  GI50: 0.297 µM
  TGI: 5.42 µM
NCI-H522 lung
  GI50: 0.288 µM
  TGI: 2.45 µM
SF-539 CNS
  GI50: 1.02 µM
  TGI: 4 µM
SNB-75 CNS
  GI50: 0.307 µM
  TGI: 2.25 µM
SR leukemia
  GI50: 0.205 µM
  TGI: > 11.3 µM

## Cc1cn([C@H]2C[C@H](O)[C@@H](CO)O2)c(=O)nc1N
A549 NSCLC
  TGI: > 100 µM
HL-60(TB) leukemia
  TGI: > 100 µM
MCF7 breast
  TGI: > 100 µM
NCI-H460 lung
  TGI: > 100 µM
NCI-H522 lung
  TGI: > 100 µM
SF-539 CNS
  TGI: > 100 µM
SNB-75 CNS
  TGI: > 100 µM
SR leukemia
  TGI: > 100 µM

## O=C1NC(=O)[C@@H](c2c[nH]c3ccccc23)[C@@H]1c1c[nH]c2ccccc12
A549 NSCLC
  GI50: > 25 µM
  TGI: > 25 µM
HL-60(TB) leukemia
  GI50: > 25 µM
  TGI: > 25 µM
MCF7 breast
  GI50: > 25 µM
  TGI: > 25 µM
NCI-H460 lung
  GI50: > 25 µM
  TGI: > 25 µM
NCI-H522 lung
  GI50: > 25 µM
  TGI: > 25 µM
SF-539 CNS
  GI50: > 25 µM
  TGI: > 25 µM
SNB-75 CNS
  GI50: > 25 µM
  TGI: > 25 µM
SR leukemia
  GI50: > 25 µM
  TGI: > 25 µM

## CCOC(=O)Cn1c(-c2nonc2NC(=O)c2ccccc2F)nc2ccccc21
A549 NSCLC
  GI50: 0.768 µM
  TGI: > 56.7 µM
HL-60(TB) leukemia
  TGI: > 100 µM
MCF7 breast
  GI50: 1.64 µM
  TGI: > 100 µM
NCI-H460 lung
  GI50: 0.579 µM
  TGI: > 100 µM
NCI-H522 lung
  GI50: 12.7 µM
  TGI: > 78.9 µM
SF-539 CNS
  GI50: 1.67 µM
  TGI: > 100 µM
SNB-75 CNS
  GI50: 4.29 µM
  TGI: 46 µM
SR leukemia
  GI50: 0.411 µM
  TGI: > 100 µM

— PubChem BioAssay (NCI)
